Reference: patent US8492352B2, “Polysaccharides with antithrombotic activity, including a covalent bond and an amino chain” (Sanofi, priority 2008, dated 2013)
Counter-ions that a name gives are not always drawn.

Target: coagulation factor Xa, in the presence of antithrombin (Homo sapiens, UniProt P01008)
Assay: in vitro model of inhibition of coagulation factor Xa in the presence of antithrombin (anti-factor Xa activity)
Assay type: biochemical
Conditions: method per Herbert et al., Blood 1998, read-out: IC50 (dose for 50% inhibition), inhibition of coagulation factor Xa (converted)
Description: The pharmacological activity of these products was in particular studied in an in vitro model of inhibition of coagulation factor Xa, in the presence of antithrombin (anti-factor Xa activity dependent on the presence of antithrombin), as described by J.-M. Herbert et al., Blood, 1998, 91, 4197-4205. In this model, the antithrombotic properties of the compounds according to the invention are confirmed.

coagulation factor Xa, in the presence of antithrombin, sequence (P01008 33-464): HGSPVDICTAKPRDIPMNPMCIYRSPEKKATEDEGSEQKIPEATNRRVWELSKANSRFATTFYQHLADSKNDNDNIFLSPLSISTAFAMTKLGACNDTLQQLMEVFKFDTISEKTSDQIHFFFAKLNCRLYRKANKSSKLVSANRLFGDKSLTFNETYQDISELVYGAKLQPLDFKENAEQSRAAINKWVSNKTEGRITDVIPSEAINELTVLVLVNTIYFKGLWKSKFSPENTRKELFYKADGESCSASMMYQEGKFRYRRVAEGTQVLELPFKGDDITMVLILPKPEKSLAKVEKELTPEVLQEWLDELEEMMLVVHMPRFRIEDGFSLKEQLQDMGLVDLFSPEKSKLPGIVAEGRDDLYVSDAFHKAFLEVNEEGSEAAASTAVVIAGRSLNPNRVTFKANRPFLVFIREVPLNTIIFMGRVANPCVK

COC1OC(COS(=O)(=O)O)C(OC2OC(C(=O)O)C(OC3OC(COS(=O)(=O)O)C(OC4OC(C(=O)O)C(OC5OC(COS(=O)(=O)O)C(OC)C(OC)C5NC(=O)CCCCCN)C(OC)C4OC)C(OS(=O)(=O)O)C3OS(=O)(=O)O)C(OC)C2OC)C(OS(=O)(=O)O)C1OS(=O)(=O)O [compound 1, Methyl(2-[N-(6-aminohexanoyl)]-2-deoxy-3,4-di-O-methyl-6-O-sulfonato-α-D-glucopyranosyl)-(1→4)-(2,3-di-O-methyl-β-D-glucopyranosyluronic acid)-(1→4)-(2,3,6-tri-O-sulfonato-α-D-glucopyranosyl)-(1→4)-(2,3-di-O-methyl-α-L-idopyranosyluronic acid)-(1→4)-2,3,6-tri-O-sulfonato-α-D-glucopyranoside, sodium salt]
IC50: 10.4 nM
